Assay results taken from EP4667483A1, “HUMAN TRANSFERRIN RECEPTOR-BINDING PEPTIDE” (JCR Pharmaceuticals Co., Ltd., priority 2023, dated 2024).
Numbered stars: 1 amine (or outer) side, 2 acyl side, 3 side chain; on linkers, the order of the positions; unused ones are H or OH. Bridge positions count the residues as written; N and C are the ends. Square brackets hold non-standard residues; d marks the D form. Peptide text beside a SMILES is read from it. * marks the point of attachment. Ala(imidazo(1,2-a)pyr3yl) = N[C@@H](Cc1cnc2ccccn12)C(=O)O; Trp(1-CH2COOH) = N[C@@H](Cc1cn(CC(=O)O)c2ccccc12)C(=O)O; NMePhe(4-COOH) = CN[C@@H](Cc1ccc(C(=O)O)cc1)C(=O)O; X7 = CN([C@@H](Cc1cccc(C(=O)O)c1)C(=O)[*:2])[*:1]; Nle(6-morpholino) = N[C@@H](CCCCN1CCOCC1)C(=O)O; X2 = O=C([C@H](Cc1cn(CCO)c2ccccc12)N[*:1])[*:2]; Phe(3-COOH) = N[C@@H](Cc1cccc(C(=O)O)c1)C(=O)O; Trp(7-aza) = N[C@@H](Cc1c[nH]c2ncccc12)C(=O)O; Tyr(2,6-F2) = N[C@@H](Cc1c(F)cc(O)cc1F)C(=O)O; NH(CH2CH2O)8Me = COCCOCCOCCOCCOCCOCCOCCOCCN*; NMePhe(3-Cl) = CN[C@@H](Cc1cccc(Cl)c1)C(=O)O; 3Pal(6-OMe) = COc1ccc(C[C@H](N)C(=O)O)cn1; 3Pal(6-NH2) = Nc1ccc(C[C@H](N)C(=O)O)cn1; PEG8 = NCCOCCOCCOCCOCCOCCOCCOCCOCCC(=O)O; Tyr(3-Me) = Cc1cc(C[C@H](N)C(=O)O)ccc1O; NMeY = CN[C@@H](Cc1ccc(O)cc1)C(=O)O; Nva(3-Et) = CCC(CC)[C@H](N)C(=O)O; 4Pal = N[C@@H](Cc1ccncc1)C(=O)O; PEG4 = NCCOCCOCCOCCOCCC(=O)O; Carboxymethyl = O=C(O)C*

Assays:
Assay type in all cases: binding
[1] = biological target: T1, human transferrin receptor (hTfR) (Homo sapiens, UniProt P02786); assay: Evaluation of pH dependence (ratio of SPR koff or KD at pH 6.0 to pH 7.4); conditions: ratio of koff at pH 6.0 to pH 7.4
Protocol: The ratio of the calculated koff or KD values under pH 6.0 conditions to those under pH 7.4 conditions was calculated to check pH dependency.

[2] = biological target: T1, human transferrin receptor (hTfR); assay: SPR measurement under pH 7.4 conditions (Biacore T200, CM3 chip, hTfR captured by His Tag antibody); conditions: read-out: hTfR SPR pH7.4 KD
[3] = biological target: T1, human transferrin receptor (hTfR); assay: SPR measurement under pH 6.0 conditions (Biacore T200, NTA chip, immobilized hTfR); conditions: read-out: hTfR SPR pH6.0 KD

T1 sequence (P02786 whole entry): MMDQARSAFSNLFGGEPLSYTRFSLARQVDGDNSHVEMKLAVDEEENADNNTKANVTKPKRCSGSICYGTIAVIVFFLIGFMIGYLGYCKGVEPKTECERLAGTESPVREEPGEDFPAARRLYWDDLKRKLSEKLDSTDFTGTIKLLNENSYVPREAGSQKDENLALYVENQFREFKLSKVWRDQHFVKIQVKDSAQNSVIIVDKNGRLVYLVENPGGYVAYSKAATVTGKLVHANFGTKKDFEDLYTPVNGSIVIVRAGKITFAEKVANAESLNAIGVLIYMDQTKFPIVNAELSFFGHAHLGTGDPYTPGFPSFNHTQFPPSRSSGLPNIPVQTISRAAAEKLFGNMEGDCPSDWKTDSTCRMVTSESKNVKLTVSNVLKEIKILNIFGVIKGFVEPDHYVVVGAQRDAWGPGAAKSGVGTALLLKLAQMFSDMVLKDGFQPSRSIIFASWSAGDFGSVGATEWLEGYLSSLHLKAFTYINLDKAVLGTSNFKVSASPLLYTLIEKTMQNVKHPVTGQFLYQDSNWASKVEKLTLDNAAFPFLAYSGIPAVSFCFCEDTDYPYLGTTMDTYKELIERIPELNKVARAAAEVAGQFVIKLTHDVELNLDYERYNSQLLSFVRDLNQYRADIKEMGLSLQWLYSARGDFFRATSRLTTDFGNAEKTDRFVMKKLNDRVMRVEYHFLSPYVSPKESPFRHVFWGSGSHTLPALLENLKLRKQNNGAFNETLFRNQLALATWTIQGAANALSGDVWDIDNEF

Compound | dependency koff pH6.0/7.4 [1] | also measured
CCC(CC)[C@@H]1NC(=O)[C@H](Cc2ccc(OCC(=O)O)cc2)NC(=O)[C@H](Cc2ccc(O)cc2)NC(=O)[C@H](CC(N)=O)NC(=O)[C@H](Cc2cn(CC(=O)O)c3ccccc23)NC(=O)[C@H](C(C)C)NC(=O)[C@H](Cc2cccc(Cl)c2)N(C)C(=O)[C@H](C(C)C)NC(=O)[C@H](C)NC(=O)CSC[C@@H](C(=O)NCCOCCOCCOCCOCCC(N)=O)NC(=O)[C@H](Cc2ccc(OC)cc2)N(C)C(=O)[C@H](Cc2cccc(C(=O)O)c2)NC(=O)[C@H](CCCNC(=N)N)NC(=O)[C@H](CCC(N)=O)NC(=O)[C@H]([C@@H](C)CC)NC1=O [compound 93] ({CH2CO}-AV[NMePhe(3-Cl)]V[Trp(1-CH2COOH)]NYY(Carboxymethyl)[Nva(3-Et)]IQR[Phe(3-COOH)][NMeY](Me)C[PEG4]-NH2; thioether N-15) | 7.99 | 
CC[C@H](C)[C@@H]1NC(=O)[C@H](Cc2ccc(OC)cc2)NC(=O)[C@H](Cc2ccc(O)cc2)NC(=O)[C@H](CC(N)=O)NC(=O)[C@H](Cc2c[nH]c3ccccc23)NC(=O)[C@H](C(C)C)NC(=O)[C@H](Cc2cccc(Cl)c2)N(C)C(=O)[C@H](C(C)C)NC(=O)[C@H](C)NC(=O)CSC[C@@H](C(=O)NCCOCCOCCOCCOCCC(N)=O)NC(=O)[C@H](Cc2cccc(C(=O)O)c2)N(C)C(=O)[C@H](Cc2cccc(C(=O)O)c2)NC(=O)[C@H](CCCNC(=N)N)NC(=O)[C@H](CCC(N)=O)NC(=O)[C@H]([C@@H](C)CC)NC1=O [compound 81] ({CH2CO}-AV[NMePhe(3-Cl)]VWNYY(Me)IIQR[Phe(3-COOH)][X7]C[PEG4]-NH2; thioether N-15) | 13.49 | 
CC[C@H](C)[C@@H]1NC(=O)[C@H](Cc2ccc(OCC(=O)O)cc2)NC(=O)[C@H](Cc2ccc(O)cc2)NC(=O)[C@H](CC(N)=O)NC(=O)[C@H](Cc2cn(CCO)c3ccccc23)NC(=O)[C@H](C(C)C)NC(=O)[C@H](Cc2cccc(Cl)c2)N(C)C(=O)[C@H]([C@@H](C)O)NC(=O)[C@H](C)NC(=O)CSC[C@@H](C(=O)NCCOCCOCCOCCOCCC(N)=O)NC(=O)[C@H](Cc2ccc(O)cc2)N(C)C(=O)[C@H](Cc2cccc(C(=O)O)c2)NC(=O)[C@H](CCCNC(=N)N)NC(=O)[C@H](CCC(N)=O)NC(=O)[C@H]([C@@H](C)CC)NC1=O [compound 77] ({CH2CO}-AT[NMePhe(3-Cl)]V[X2]NYY(Carboxymethyl)IIQR[Phe(3-COOH)][NMeY]C[PEG4]-NH2; thioether N-15) | 4.46 | 
CCC(CC)[C@@H]1NC(=O)[C@H](Cc2ccc(OCC(=O)O)cc2)NC(=O)[C@H](Cc2ccc(N)nc2)NC(=O)[C@H](CC(N)=O)NC(=O)[C@H](Cc2cn(CC(=O)O)c3ccccc23)NC(=O)[C@H](C(C)C)NC(=O)[C@H](Cc2cccc(Cl)c2)N(C)C(=O)[C@H](C(C)C)NC(=O)[C@H](C)NC(=O)CSC[C@@H](C(=O)NCCOCCOCCOCCOCCC(N)=O)NC(=O)[C@H](Cc2ccc(C(=O)O)cc2)N(C)C(=O)[C@H](Cc2cccc(C(=O)O)c2)NC(=O)[C@H](CCCCN2CCOCC2)NC(=O)[C@H](CCCCN2CCOCC2)NC(=O)[C@H]([C@@H](C)CC)NC1=O [compound 86] ({CH2CO}-AV[NMePhe(3-Cl)]V[Trp(1-CH2COOH)]N[3Pal(6-NH2)]Y(Carboxymethyl)[Nva(3-Et)]I[Nle(6-morpholino)][Nle(6-morpholino)][Phe(3-COOH)][NMePhe(4-COOH)]C[PEG4]-NH2; thioether N-15) | 28.16 | 
CCC(CC)[C@@H]1NC(=O)[C@H](Cc2cnc3ccccn23)NC(=O)[C@H](Cc2ccc(O)cc2)NC(=O)[C@H](CC(N)=O)NC(=O)[C@H](Cc2cn(CC(=O)O)c3ccccc23)NC(=O)[C@H](C(C)C)NC(=O)[C@H](Cc2cccc(Cl)c2)N(C)C(=O)[C@H](C(C)C)NC(=O)[C@H](C)NC(=O)CSC[C@@H](C(=O)NCCOCCOCCOCCOCCC(N)=O)NC(=O)[C@H](Cc2ccc(O)cc2)N(C)C(=O)[C@H](Cc2cccc(C(=O)O)c2)NC(=O)[C@H](CCCNC(=N)N)NC(=O)[C@H](CCC(N)=O)NC(=O)[C@H]([C@@H](C)CC)NC1=O [compound 91] ({CH2CO}-AV[NMePhe(3-Cl)]V[Trp(1-CH2COOH)]NY[Ala(imidazo(1,2-a)pyr3yl)][Nva(3-Et)]IQR[Phe(3-COOH)][NMeY]C[PEG4]-NH2; thioether N-15) | 9.32 | 
CCC(CC)[C@@H]1NC(=O)[C@H](Cc2ccc(OCC(=O)O)cc2)NC(=O)[C@H](Cc2ccc(O)c(C)c2)NC(=O)[C@H](CC(N)=O)NC(=O)[C@H](Cc2cn(CC(=O)O)c3ccccc23)NC(=O)[C@H](C(C)C)NC(=O)[C@H](Cc2cccc(Cl)c2)N(C)C(=O)[C@H](C(C)C)NC(=O)[C@H](C)NC(=O)CSC[C@@H](C(=O)NCCOCCOCCOCCOCCC(N)=O)NC(=O)[C@H](Cc2ccc(O)cc2)N(C)C(=O)[C@H](Cc2cccc(C(=O)O)c2)NC(=O)[C@H](CCCNC(=N)N)NC(=O)[C@H](CCC(N)=O)NC(=O)[C@H]([C@@H](C)CC)NC1=O [compound 89] ({CH2CO}-AV[NMePhe(3-Cl)]V[Trp(1-CH2COOH)]N[Tyr(3-Me)]Y(Carboxymethyl)[Nva(3-Et)]IQR[Phe(3-COOH)][NMeY]C[PEG4]-NH2; thioether N-15) | 8.08 | 
CC[C@H](C)[C@@H]1NC(=O)[C@H](Cc2ccc(OCC(=O)O)cc2)NC(=O)[C@H](Cc2c(F)cc(O)cc2F)NC(=O)[C@H](CC(N)=O)NC(=O)[C@H](Cc2cn(CC(=O)O)c3ccccc23)NC(=O)[C@H](C(C)C)NC(=O)[C@H](Cc2cccc(Cl)c2)N(C)C(=O)[C@H](C(C)C)NC(=O)[C@H](C)NC(=O)CSC[C@@H](C(=O)NCCOCCOCCOCCOCCC(N)=O)NC(=O)[C@H](Cc2ccc(O)cc2)N(C)C(=O)[C@H](Cc2cccc(C(=O)O)c2)NC(=O)[C@H](CCCNC(=N)N)NC(=O)[C@H](CCC(N)=O)NC(=O)[C@H]([C@@H](C)CC)NC1=O [compound 78] ({CH2CO}-AV[NMePhe(3-Cl)]V[Trp(1-CH2COOH)]N[Tyr(2,6-F2)]Y(Carboxymethyl)IIQR[Phe(3-COOH)][NMeY]C[PEG4]-NH2; thioether N-15) | 4.38 | 
CCC(CC)[C@@H]1NC(=O)[C@H](Cc2ccc(OC)nc2)NC(=O)[C@H](Cc2ccc(O)cc2)NC(=O)[C@H](CC(N)=O)NC(=O)[C@H](Cc2cn(CC(=O)O)c3ccccc23)NC(=O)[C@H](C(C)C)NC(=O)[C@H](Cc2cccc(Cl)c2)N(C)C(=O)[C@H](C(C)C)NC(=O)[C@H](C)NC(=O)CSC[C@@H](C(=O)NCCOCCOCCOCCOCCC(N)=O)NC(=O)[C@H](Cc2ccc(O)cc2)N(C)C(=O)[C@H](Cc2cccc(C(=O)O)c2)NC(=O)[C@H](CCCNC(=N)N)NC(=O)[C@H](CCC(N)=O)NC(=O)[C@H]([C@@H](C)CC)NC1=O [compound 90] ({CH2CO}-AV[NMePhe(3-Cl)]V[Trp(1-CH2COOH)]NY[3Pal(6-OMe)][Nva(3-Et)]IQR[Phe(3-COOH)][NMeY]C[PEG4]-NH2; thioether N-15) | 8.01 | 
CC[C@H](C)[C@@H]1NC(=O)[C@H](Cc2ccc(OC)cc2)NC(=O)[C@H](Cc2ccc(O)cc2)NC(=O)[C@H](CC(N)=O)NC(=O)[C@H](Cc2c[nH]c3ncccc23)NC(=O)[C@H](C(C)C)NC(=O)[C@H](Cc2cccc(Cl)c2)N(C)C(=O)[C@H](C(C)C)NC(=O)[C@H](C)NC(=O)CSC[C@@H](C(=O)NCCOCCOCCOCCOCCC(N)=O)NC(=O)[C@H](Cc2ccc(O)cc2)N(C)C(=O)[C@H](CCC(=O)NCCOCCOCCOCCOCCOCCOCCOCCOCCC(=O)O)NC(=O)[C@H](CCCNC(=N)N)NC(=O)[C@H](CCC(=O)NCCOCCOCCOCCOCCOCCOCCOCCOCCC(=O)O)NC(=O)[C@H]([C@@H](C)CC)NC1=O [compound 141] ({CH2CO}-AV[NMePhe(3-Cl)]V[Trp(7-aza)]NYY(Me)IIE(PEG8)RE(PEG8)[NMeY]C[PEG4]-NH2; thioether N-15) |  | Kd ([2]; SPR, pH 7.4, peptide with the linker named in the table): 142 nM; Kd ([3]; SPR, pH 6.0, peptide with the linker named in the table): 212 nM
CCC(CC)[C@@H]1NC(=O)[C@H](Cc2ccc(OCC(=O)O)cc2)NC(=O)[C@H](Cc2ccc(N)nc2)NC(=O)[C@H](CC(N)=O)NC(=O)[C@H](Cc2cn(CC(=O)O)c3ccccc23)NC(=O)[C@H](C(C)C)NC(=O)[C@H](Cc2cccc(Cl)c2)N(C)C(=O)[C@H](C(C)C)NC(=O)[C@H](C)NC(=O)CSC[C@@H](C(=O)NCCOCCOCCOCCOCCC(N)=O)NC(=O)[C@H](Cc2ccc(C(=O)O)cc2)N(C)C(=O)[C@H](Cc2ccncc2)NC(=O)[C@H](CCCCN2CCOCC2)NC(=O)[C@H](CCC(N)=O)NC(=O)[C@H]([C@@H](C)CC)NC1=O [compound 49] ({CH2CO}-AV[NMePhe(3-Cl)]V[Trp(1-CH2COOH)]N[3Pal(6-NH2)]Y(Carboxymethyl)[Nva(3-Et)]IQ[Nle(6-morpholino)][4Pal][NMePhe(4-COOH)]C[PEG4]-NH2; thioether N-15) |  | Kd ([2]; pH 7.4, single-cycle kinetics): 15800 nM; Kd ([3]; pH 6.0, single-cycle kinetics): 576 nM
CCC(CC)[C@@H]1NC(=O)[C@H](Cc2ccc(OCC(=O)O)cc2)NC(=O)[C@H](Cc2ccc(N)nc2)NC(=O)[C@H](CC(N)=O)NC(=O)[C@H](Cc2c[nH]c3ncccc23)NC(=O)[C@H](C(C)C)NC(=O)[C@H](Cc2cccc(Cl)c2)N(C)C(=O)[C@H](C(C)C)NC(=O)[C@H](C)NC(=O)CSC[C@@H](C(=O)NCCOCCOCCOCCOCCC(N)=O)NC(=O)[C@H](Cc2ccc(O)cc2)N(C)C(=O)[C@H](Cc2cccc(C(=O)O)c2)NC(=O)[C@H](CCCNC(=N)N)NC(=O)[C@H](CCC(=O)NCCOCCOCCOCCOCCOCCOCCOCCOC)NC(=O)[C@H]([C@@H](C)CC)NC1=O [compound 43] ({CH2CO}-AV[NMePhe(3-Cl)]V[Trp(7-aza)]N[3Pal(6-NH2)]Y(Carboxymethyl)[Nva(3-Et)]IE(NH(CH2CH2O)8Me)R[Phe(3-COOH)][NMeY]C[PEG4]-NH2; thioether N-15) |  | Kd ([2]; pH 7.4, single-cycle kinetics): 107 nM; Kd ([3]; pH 6.0, single-cycle kinetics): 601 nM
